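How tested: cells in 96-well plates exposed to compound for 48 hours at five concentrations. GI50: concentration for 50% inhibition of growth.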 Calls of active or inactive are those of the source. Cut-off read from the data, not from the text of the source: active = GI50 up to about 1.1 µM and inactive = higher.
How the values were obtained:
Assay in all cases: growth of human tumour cells (NCI), 48 h
DMS-273 = system: DMS-273
HOP-18 = system: HOP-18
XF498 = system: XF498
SNB-78 = system: SNB-78
DMS-114 = system: DMS-114
M19-MEL = system: M19-MEL
DLD-1 = system: DLD-1
RXF 631 = system: RXF 631
LXFL 529 = system: LXFL 529

SMILES | GI50 (DMS-273) | GI50 (HOP-18) | GI50 (XF498) | GI50 (SNB-78) | GI50 (DMS-114) | GI50 (M19-MEL) | GI50 (DLD-1) | GI50 (RXF 631) | GI50 (LXFL 529)
CCC(=O)OC1CCn2c1nc1c2C(=O)C(C)=C(NC(C)=O)C1=N (stereo not drawn) | 1.67 µM (inactive) | 1.8 µM (inactive) | 2.65 µM (inactive) | 2.6 µM (inactive) | 1.5 µM (inactive) | 0.186 µM (active) | 1.42 µM (inactive) |  | 
Cn1cnc([N+](=O)[O-])c1Sc1nccn1-c1cccc2ccccc12 | 25.2 µM (inactive) | 2.52 µM (inactive) | 16.6 µM (inactive) | 24.7 µM (inactive) | 22 µM (inactive) | 25.7 µM (inactive) | 24.2 µM (inactive) | 22.3 µM (inactive) | 18.5 µM (inactive)
CCN(CC)C(=S)SCC(=O)Nc1nc2c(s1)CCCC2 | 88.5 µM (inactive) |  | 18.7 µM (inactive) | > 100 µM (inactive) | 67.8 µM (inactive) | 52.7 µM (inactive) | 94 µM (inactive) |  | 47.2 µM (inactive)
Cn1cc2ccccc2c1-c1nc(F)nc(OCC(=O)[C@H]2CCC3[C@@H]4CCC5=CC(=O)CC[C@]5(C)C4[C@@H](O)C[C@@]32C)n1 (stereo partly drawn) | 15.6 µM (inactive) | 15.5 µM (inactive) | 8.65 µM (inactive) | 13.2 µM (inactive) | 7.52 µM (inactive) | 4.34 µM (inactive) | 8.89 µM (inactive) | 2.33 µM (inactive) | 3.72 µM (inactive)
O=C1CC[C@@H](S(=O)(=O)c2ccccc2)[C@H](/C=C/c2ccccc2)O1 |  | > 100 µM (inactive) | < 0.01 µM (active) |  | > 100 µM (inactive) | > 100 µM (inactive) |  |  | > 100 µM (inactive)
CN(C)CCS/C(=N\c1ccccc1)N1C=COC=C1 | 18.4 µM (inactive) | 59.8 µM (inactive) | 31.2 µM (inactive) | 26.9 µM (inactive) | 14.6 µM (inactive) | 17.5 µM (inactive) | 17.4 µM (inactive) |  | 16.4 µM (inactive)
Cc1cccc(C)c1NC(=O)CCC/C(CC(=O)c1ccc(F)cc1)=N\NC(=O)C(=O)NN | > 100 µM (inactive) | > 100 µM (inactive) | > 100 µM (inactive) | > 100 µM (inactive) | > 100 µM (inactive) | > 100 µM (inactive) | > 100 µM (inactive) | > 100 µM (inactive) | > 100 µM (inactive)
NC(=O)c1ccccc1NC(=O)C(=O)C(C(=O)c1ccc(Cl)c(Cl)c1)C1OC(=O)c2ccccc21 (stereo not drawn) | 36.2 µM (inactive) | 33.5 µM (inactive) | > 100 µM (inactive) | 39.2 µM (inactive) |  |  | 43.3 µM (inactive) |  | 29.9 µM (inactive)
O=C(/C=C/c1ccc([N+](=O)[O-])o1)N1CCN(Cc2ccccc2)CC1 | 9.82 µM (inactive) | 22.6 µM (inactive) | 16.7 µM (inactive) | 17.1 µM (inactive) | 12.2 µM (inactive) | 6.43 µM (inactive) | 5.96 µM (inactive) |  | 6.56 µM (inactive)
O=C(Cn1ccnc1[N+](=O)[O-])c1ccccc1 | > 100 µM (inactive) |  | > 100 µM (inactive) |  |  | > 100 µM (inactive) | > 100 µM (inactive) |  | > 100 µM (inactive)
CN(C)C(=O)CC(C(=O)O)c1c[nH]c2ccccc12 (stereo not drawn) | > 100 µM (inactive) |  |  |  | > 100 µM (inactive) | > 100 µM (inactive) | > 100 µM (inactive) | > 100 µM (inactive) | > 100 µM (inactive)
Cc1ccc(C)c(NC(=O)CCc2n[nH]c(=S)o2)c1 | > 100 µM (inactive) | > 100 µM (inactive) | > 100 µM (inactive) | > 100 µM (inactive) | > 100 µM (inactive) | > 100 µM (inactive) | > 100 µM (inactive) | > 100 µM (inactive) | > 100 µM (inactive)
C=C(COC(C)=O)CC(/C=C(\C)CC/C=C(\C)CO)OC(C)=O (stereo not drawn) | > 100 µM (inactive) |  | > 100 µM (inactive) | > 100 µM (inactive) |  | > 100 µM (inactive) | > 100 µM (inactive) | > 100 µM (inactive) | > 100 µM (inactive)
COc1ccc2[nH]c3c4c(cc(-c5ccccc5)c3c2c1)C(=O)N(c1ccccc1)C4=O | 2.07 µM (inactive) | 24.7 µM (inactive) |  | 27.2 µM (inactive) | > 47.8 µM (inactive) | 30.5 µM (inactive) | > 53 µM (inactive) |  | 18.1 µM (inactive)
COc1cc2c(c(OC)c1)C(=O)C(=O)C(CC1(C)OCCCO1)=C2 | 13.6 µM (inactive) | 10.4 µM (inactive) | 12.8 µM (inactive) | 9.95 µM (inactive) | 3.59 µM (inactive) | 2.32 µM (inactive) | 2.93 µM (inactive) | 17.4 µM (inactive) | 4.51 µM (inactive)
CCOC(OCC)c1ccc(/C=C/c2cc(OC)c(OC)c(OC)c2)cc1 | 17.6 µM (inactive) | 61.4 µM (inactive) |  | 27 µM (inactive) | 20.7 µM (inactive) | 19.9 µM (inactive) | 16.1 µM (inactive) | 20 µM (inactive) | 16.1 µM (inactive)
Cc1cc([N+](=O)[O-])ccc1Sc1c2ccccc2nc2ccccc12 | 33 µM (inactive) | 64 µM (inactive) | 17.5 µM (inactive) |  |  |  | 25.4 µM (inactive) |  | 18.7 µM (inactive)
COC(=O)c1c2cccccc-2c(Cc2c3cccccc-3c(C(=O)OC)c2O)c1O | > 100 µM (inactive) | > 100 µM (inactive) | > 100 µM (inactive) | > 100 µM (inactive) | > 100 µM (inactive) | > 100 µM (inactive) | > 100 µM (inactive) |  | 
CC(=O)N1CC(=O)NC1=S | > 100 µM (inactive) |  | > 100 µM (inactive) | > 100 µM (inactive) | > 100 µM (inactive) | > 100 µM (inactive) | > 100 µM (inactive) |  | > 100 µM (inactive)
CC(=O)c1cccc(NC2C(N)C(NC(=O)N(C)C)(C(C)O)C(C)(O)C2(O)COC(=O)c2c(C)cccc2O)c1 (stereo not drawn) |  |  |  | 0.01 µM (active) | 0.01 µM (active) | 0.01 µM (active) |  |  | 0.01 µM (active)
Nc1nc(Cl)cc(NCCCCCNc2cc(Cl)nc(N)n2)n1 | > 100 µM (inactive) | > 100 µM (inactive) |  | 31.3 µM (inactive) |  |  | > 100 µM (inactive) | > 100 µM (inactive) | 26.9 µM (inactive)
CCOc1cc2c(cc1OC)c[n+](C)c1c3cc(OC)c(OC)cc3ccc21 | 27.8 µM (inactive) | > 48.6 µM (inactive) |  | > 57 µM (inactive) | 18.2 µM (inactive) | > 56.1 µM (inactive) | > 78.2 µM (inactive) | 22.6 µM (inactive) | 27 µM (inactive)
CC[N+](C)(CC)CC(C)(C)C(=O)/C=C/c1ccc(/C=C/C(=O)C(C)(C)C[N+](C)(CC)CC)cc1 | > 100 µM (inactive) |  |  | > 100 µM (inactive) | > 100 µM (inactive) | > 100 µM (inactive) | > 100 µM (inactive) | > 100 µM (inactive) | > 100 µM (inactive)
